Measured values from PMC6800282, “Make the right measurement: Discovery of an allosteric inhibition site for p300-HAT” (Structural Dynamics, 2019).
Values joined by “and” are separate entries in the source; they are usually repeats but may differ in a detail not shown here. Equal entries are not always repeated.

What was measured:
CBP HAT = CBP HAT (Homo sapiens, UniProt Q92793); experiment: CBP HAT SPA; type: biochemical
WT P300 HAT domain = target: T1, WT P300 HAT domain (Homo sapiens, UniProt Q09472); experiment: p300 HAT domain SPA catalytic assay with peptide substrate; type: biochemical; settings: for Mechanism of inhibition (excess substrate MOI tests): 10× AcCoA, 30× histone peptide; for IC50: HAT domain construct K1287-F1666
T1 construct: WT HAT construct = K1287-F1666 including the L1520-L1580 regulatory loop, expressed as HisTev fusion; HisTev (polyhistidine tag with TEV site); made in house
T1 sequence (Q09472 1287-1666): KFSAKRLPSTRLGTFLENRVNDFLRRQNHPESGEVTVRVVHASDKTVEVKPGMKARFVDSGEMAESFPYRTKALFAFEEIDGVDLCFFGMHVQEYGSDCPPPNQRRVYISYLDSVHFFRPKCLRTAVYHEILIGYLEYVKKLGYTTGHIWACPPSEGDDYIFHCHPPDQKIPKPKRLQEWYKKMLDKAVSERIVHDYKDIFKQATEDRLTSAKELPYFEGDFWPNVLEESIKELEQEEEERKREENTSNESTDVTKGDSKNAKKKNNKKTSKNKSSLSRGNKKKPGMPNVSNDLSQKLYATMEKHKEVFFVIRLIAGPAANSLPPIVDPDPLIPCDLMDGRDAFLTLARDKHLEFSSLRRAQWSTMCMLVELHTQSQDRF
Experimental: To identify starting points for modulating p300/CBP activity, high throughput screening was carried out using the WT P300 HAT domain (WT HAT construct = K1287-F1666 including the L1520-L1580 regulatory loop, expressed as HisTev fusion) and a peptide substrate in a catalytic assay. After extensive triage, several validated inhibitor types were identified, one of which will be the focus of this report. A more detailed description of the HTS efforts will be the subject of a forthcoming publication by Huhn et al. At this stage of the project, only the HAT domain of p300 was used, as it was not yet feasible to obtain sufficient quantities of full-length P300 (FL-P300) to conduct a high-throughput screen of >150,000 compounds.

P300-HAT domain = target: T2, P300-HAT domain (Homo sapiens, UniProt Q09472); experiment: Dynamic scanning fluorimetry (DSF); type: binding; settings: for ΔTm at 250 µM: compound at 250 μM
T2 sequence (Q09472 1287-1666): T1 sequence (Q09472 1287-1666)
From the text: Additionally, given their small size, it seemed unlikely that CPI-076 and CPI-090 blocked both sites.

[1] = target: T3, full-length human p300 (FL-P300) (Homo sapiens, UniProt Q09472); experiment: Full-length p300 SPA; type: biochemical; settings: for Inhibition of FL enzyme: full-length P300
T3 construct: polyhistidine tag with TEV site (HisTev) (N); StrepII (C); made in house; host or cells: Sf9 insect cells (baculovirus)
T3 sequence (Q09472 whole entry): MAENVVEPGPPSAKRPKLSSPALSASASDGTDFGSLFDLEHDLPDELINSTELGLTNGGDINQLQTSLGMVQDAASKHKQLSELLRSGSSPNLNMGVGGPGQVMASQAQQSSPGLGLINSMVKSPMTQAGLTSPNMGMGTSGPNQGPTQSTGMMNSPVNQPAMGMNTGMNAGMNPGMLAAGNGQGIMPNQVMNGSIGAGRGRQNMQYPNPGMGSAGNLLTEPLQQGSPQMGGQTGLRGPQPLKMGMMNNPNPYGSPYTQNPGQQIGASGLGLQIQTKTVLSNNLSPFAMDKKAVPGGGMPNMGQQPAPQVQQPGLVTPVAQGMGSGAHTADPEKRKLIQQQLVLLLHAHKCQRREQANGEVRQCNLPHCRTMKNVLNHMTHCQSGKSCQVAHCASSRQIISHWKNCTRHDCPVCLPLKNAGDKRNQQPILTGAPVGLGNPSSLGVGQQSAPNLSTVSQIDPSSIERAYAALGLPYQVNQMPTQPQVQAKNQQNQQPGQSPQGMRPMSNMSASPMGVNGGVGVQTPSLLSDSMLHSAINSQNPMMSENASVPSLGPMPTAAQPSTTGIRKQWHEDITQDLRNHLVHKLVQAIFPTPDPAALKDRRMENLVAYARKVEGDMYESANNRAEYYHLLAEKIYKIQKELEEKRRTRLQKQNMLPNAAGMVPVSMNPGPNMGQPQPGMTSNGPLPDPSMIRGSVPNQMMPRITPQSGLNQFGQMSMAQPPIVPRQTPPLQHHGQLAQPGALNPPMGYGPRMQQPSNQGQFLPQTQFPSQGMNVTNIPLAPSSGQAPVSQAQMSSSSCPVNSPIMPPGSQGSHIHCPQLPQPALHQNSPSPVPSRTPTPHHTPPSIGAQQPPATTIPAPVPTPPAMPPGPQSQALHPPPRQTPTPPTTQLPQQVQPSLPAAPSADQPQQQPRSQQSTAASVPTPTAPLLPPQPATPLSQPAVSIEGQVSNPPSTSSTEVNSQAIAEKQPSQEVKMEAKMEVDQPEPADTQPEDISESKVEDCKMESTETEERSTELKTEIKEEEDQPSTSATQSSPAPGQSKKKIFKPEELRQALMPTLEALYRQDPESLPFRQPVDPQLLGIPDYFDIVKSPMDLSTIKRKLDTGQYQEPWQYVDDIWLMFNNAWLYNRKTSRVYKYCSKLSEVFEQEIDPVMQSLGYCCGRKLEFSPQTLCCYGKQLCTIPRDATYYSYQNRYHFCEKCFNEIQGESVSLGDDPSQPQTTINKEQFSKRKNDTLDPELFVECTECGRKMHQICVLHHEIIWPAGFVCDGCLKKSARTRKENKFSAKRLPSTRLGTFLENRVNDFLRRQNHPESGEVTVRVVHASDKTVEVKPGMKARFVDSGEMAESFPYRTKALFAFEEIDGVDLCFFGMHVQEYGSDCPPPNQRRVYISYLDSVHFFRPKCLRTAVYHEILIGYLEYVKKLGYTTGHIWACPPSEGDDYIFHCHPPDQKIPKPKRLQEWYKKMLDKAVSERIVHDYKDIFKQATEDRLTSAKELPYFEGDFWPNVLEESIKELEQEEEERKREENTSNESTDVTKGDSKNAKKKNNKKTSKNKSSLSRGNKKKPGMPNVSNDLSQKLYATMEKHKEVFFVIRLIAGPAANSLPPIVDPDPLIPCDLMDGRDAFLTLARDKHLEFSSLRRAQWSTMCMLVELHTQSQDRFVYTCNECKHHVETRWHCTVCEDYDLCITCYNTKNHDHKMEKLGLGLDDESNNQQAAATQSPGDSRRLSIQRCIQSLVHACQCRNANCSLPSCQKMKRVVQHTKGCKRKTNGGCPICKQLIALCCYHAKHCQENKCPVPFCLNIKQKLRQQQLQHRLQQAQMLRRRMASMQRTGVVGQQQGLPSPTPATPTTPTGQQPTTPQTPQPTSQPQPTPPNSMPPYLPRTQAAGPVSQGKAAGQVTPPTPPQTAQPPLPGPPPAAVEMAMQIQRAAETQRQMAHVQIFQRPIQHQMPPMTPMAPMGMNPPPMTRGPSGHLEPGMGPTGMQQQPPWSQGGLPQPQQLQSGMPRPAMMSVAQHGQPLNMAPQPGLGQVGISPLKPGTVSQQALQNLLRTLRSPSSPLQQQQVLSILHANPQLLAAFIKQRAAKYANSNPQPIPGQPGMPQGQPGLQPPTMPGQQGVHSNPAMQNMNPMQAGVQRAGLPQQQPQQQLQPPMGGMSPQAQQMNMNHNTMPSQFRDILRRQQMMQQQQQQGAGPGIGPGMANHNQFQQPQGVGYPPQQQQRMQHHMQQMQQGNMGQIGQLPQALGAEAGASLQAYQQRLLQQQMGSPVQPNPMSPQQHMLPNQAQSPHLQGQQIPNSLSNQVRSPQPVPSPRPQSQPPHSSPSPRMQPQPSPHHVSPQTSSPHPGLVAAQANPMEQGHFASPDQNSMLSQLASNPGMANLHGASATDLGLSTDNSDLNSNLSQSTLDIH
From the text: The sequence of 2414-residue full-length human p300 (FL-P300) was codon-optimized for insect cell expression and synthesized in three parts (Genscript). After assembly of the full-length sequence, the complete ORF was subcloned into a modified pTriEx vector (Novagen/EMD Millipore) to express FL-P300 with both an N-terminal, cleavable polyhistidine tag and C-terminal StrepII tag (HisTev-p300-Strep). Baculovirus was produced by co-transfection of the plasmid into Sf9 cells with linearized baculovirus BestBac2.0 (Expression Systems). The protein was expressed in Sf9 cells and purified with Talon Metal Affinity Resin (Clontech/Takara). The purified protein was concentrated to 1.6 mg/ml in storage buffer (50 mM Tris pH 8, 100 mM NaCl, 10% glycerol, and 0.5 mM TCEP).
At this point in the program, quantities of highly purified FL P300 were more readily available (preparation described above), and so HAT inhibitors were retested against FL P300 under optimized conditions. A large shift relative to the P300-HAT catalytic domain assay was observed.

[2] = test system: H3K18 acetylation in HCT116 cells; experiment: Inhibition of H3K18 acetylation in HCT116 cells; type: cell-based; settings: Homo sapiens, HCT-116, read-out: H3K18Ac EC50
[3] = full-length enzyme, optimized conditions

Chain of CBP HAT (Q92793 1323-1700 limits assumed): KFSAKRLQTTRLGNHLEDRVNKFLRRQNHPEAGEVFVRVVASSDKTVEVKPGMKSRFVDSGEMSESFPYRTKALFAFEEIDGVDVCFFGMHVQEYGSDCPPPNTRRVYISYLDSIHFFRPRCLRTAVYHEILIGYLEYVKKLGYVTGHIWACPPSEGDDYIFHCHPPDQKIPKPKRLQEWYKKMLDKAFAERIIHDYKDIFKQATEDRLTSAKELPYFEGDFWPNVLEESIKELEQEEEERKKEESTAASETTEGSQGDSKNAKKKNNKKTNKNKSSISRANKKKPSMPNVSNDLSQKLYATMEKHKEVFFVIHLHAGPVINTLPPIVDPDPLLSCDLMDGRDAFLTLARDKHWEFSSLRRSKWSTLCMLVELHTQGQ

| IC50 (CBP HAT) [µM] | IC50 (WT P300 HAT domain) | ΔTm at 250 µM (P300-HAT domain) [°C] | Inhibition of FL enzyme [1] | FL p300 SPA IC50 [1, 3] | DSF stabilization (P300-HAT domain) | IC50 [1, 3] [µM] | EC50 [2] [µM] | SMILES | Mechanism of inhibition (excess substrate MOI tests) (WT P300 HAT domain) |
| --- | --- | --- | --- | --- | --- | --- | --- | --- | --- |
| 39 | 20 µM | 1.3 | no measurable FL activity | Undetectable | – | – | – | CC(=O)Nc1cccs1 [CPI-076] | AcCoA- and peptide-modulating compounds but not wholly competitive |
| 0.74 | 0.318 µM and 0.31 µM | 5.8 | does not inhibit the FL enzyme | – | strong stabilization | > 160 | > 30 | Cc1[nH]c2ccccc2c1-c1ncc(C(F)(F)F)cc1Cl [CPI-090] | AcCoA- and peptide-modulating compounds but not wholly competitive |
